Key:
[1] = tested on: human myometrial microvascular endothelial cells (MEC); assay: Endothelial cell proliferation assay (CellTitre 96 MTS bioassay); assay type: cell-based; details: for effect of cAMP promoter on bFGF-stimulated MEC proliferation: IBMX 330 μM, dibutyryl cAMP 50 μM; for stimulation of MEC proliferation by maximal concentrations of growth factors: P5 MEC, M199 with 20% HS, 6 days (FIG. 5); for growth factor-stimulated MEC proliferation with combinations of HS and FCS in the medium: compared with HS alone (FIG. 3B); for dose dependence of stimulated MEC proliferation: concentration range 0.01-20 ng/ml (FIG. 6); for EC50 of growth factor-induced MEC proliferation: 6 days, absorbance as % of maximal response
Experimental: The CellTitre 96 MTS tetrazolium-based bioassay (Promega, Madison, WT, USA), where the absorbance of the formazan product is directly proportional to the number of viable cells, was used to indirectly measure cell number after incubation of MEC with various mitogens. It was initially established that the MTS bioassay was linear from 0-2 ×10^4 MEC/well. MEC in basal M199 medium (M199 medium containing 5% PCS, 2 mM glutamine, antibiotic/antimycotic mixture) were seeded in triplicate onto fibronectin (10 μg/ml) coated wells of 96 well plates at 2000 cells/well and allowed to attach the quiesce for 36 hours at 37° C. in 5% CO2/air. Medium was replaced with the standard or complex M199 culture medium (day 0) with or without the following growth factors: 10 ng/ml vascular endothelial growth factor (VEGF121;gift from Dr J Abrahams, Scios Inc, Sunnyvale, Calif., USA), 0.01-20 ng/ml VEGF165 (R & D Systems, Minneapolis, Minn., USA) bFGF (0.01-10 ng/ml), 120 μg/ml EC growth factor (ECGF; Boehringer Mannheim) 50 ng/ml epidermal growth factor (EGF; R & D Systems), depending on the assay conditions being tested. In some experiments different concentrations of HS and FCS and combinations of both were tested and in other experiments various component of the complex medium were omitted. Cells were incubated at 37° C. in 5% CO2/air for 6 or 10 days, with medium changes every 2 days. Twenty μl 3-(4,5-dimethylthiazol-2-yl)-5-(3-carboxymethoxyphenyl)-2-(4sulphophenyl)-2H-tetrazolium (MTS) was added to the cells and incubated 2 hours at 37° C. and absorbance measured at 490 nm using a plate reader (Emax, Molecular Devices, Sunnyvale, Calif., USA). Absorbance was also measured on day 0 and this value subtracted from all results to determine MEC growth over 6 days.

[2] = tested on: human myometrial microvascular endothelial cells (MEC); assay: MEC migration assay (monolayer wound assay); assay type: cell-based; design: key to migration of MEC into denuded area, Early Passage MEC (P4) / migration of MEC into denuded area, Late Passage MEC (P12): +/−: very low; +: low; ++: medium; +++: high coverage of the denuded area; details: for migration of MEC in response to growth factor: 48 hour incubation in basal medium, high and low passage MEC; for migration of MEC into denuded area, Early Passage MEC (P4) / migration of MEC into denuded area, Late Passage MEC (P12): semi-quantitative coverage of denuded area after wounding, basal medium
Experimental: […] The medium was changed to basal medium, the MEC monolayers wounded using a plastic pasteur pipette and photographed using a Zeiss inverted phase contrast microscope. Duplicate wells were incubated with or without VEGF165 (10 ng/ml) or bFGF (5 ng/ml) in the presence and absence of 40 μg/ml rabbit anti human VEGF antibody (Gargett et al., 1999) or 50 μg/ml goat anti-human bFGF antibody (R & D Systems) respectively for 48 hours at 37° C. in 5% CO/air and the same field of view was rephotographed.
A characteristic feature of EC is their ability to migrate in response to certain growth factors (Goodman et al., 1985; Ferrara and DavisSmyth, 1997). The migration of early and late passage myometrial MEC in response to bFGF and VEGF was examined using the monolayer wound assay (Goodman el al., 1985) in the presence and absence of neutralising bFGF and VEGF antibodies.

[3] = over 10 days, 5 ng/ml bFGF, 15% HS/5% FCS (FIG. 4)
[4] = early (low) passage MEC (P1, P2, P3)
[5] = late (high) passage MEC (P10, P13)

Row | Compound | effect of cAMP promoter on bFGF-stimulated MEC proliferation [1, 3] | stimulation of MEC proliferation by maximal concentrations of growth factors [1] | growth factor-stimulated MEC proliferation with combinations of HS and FCS in the medium [1] | dose dependence of stimulated MEC proliferation [1] | EC50 of growth factor-induced MEC proliferation [1, 4] | difference in absorbance between maximal and minimal response measured at day 6 ([1]; high passage MEC, n=2) | EC50 of growth factor-induced MEC proliferation [1, 5] | difference in absorbance between maximal and minimal response measured at day 6 ([1]; low passage MEC, n=3) | migration of MEC in response to growth factor [2] | migration of MEC into denuded area, Early Passage MEC (P4) [2] | migration of MEC into denuded area, Late Passage MEC (P12) [2] | further results
1 | CC(C)Cn1c(=O)n(C)c(=O)c2[nH]cnc21 [IBMX, 3-isobutyl-1-methyl xanthine, reference compound] | significantly greater proliferation of myometrial MEC over 10 days in the absence |  |  |  |  |  |  |  |  |  |  | 
2 | bFGF: mitogen, growth factor (Gibco BRL) |  | maximal stimulation of MEC proliferation | even greater levels of MEC proliferation | dose dependent manner | ~0.6 ng/mL | 0.82 | ~0.9 ng/mL | 0.50 ±0.07 | migrated into the denuded area to a comparable extent | +++ | ++ | 
3 | CCCC(=O)Nc1ncnc2c1ncn2[C@@H]1O[C@@H]2COP(=O)(O)O[C@H]2[C@H]1OC(=O)CCC [dibutyryl cAMP, N-6, 2 ′-O-dibutyryl adenosine 3′,5′-cyclic monophosphate, reference compound] | significantly greater proliferation of myometrial MEC over 10 days in the absence |  |  |  |  |  |  |  |  |  |  | effect of cAMP promoter on bFGF-stimulated MEC proliferation ([1]; after 5 days, 5 ng/ml bFGF (FIG. 4)): greater growth was observed in the absence
4 | EGF: epidermal growth factor (R & D Systems) (NSDSECPLSHDGYCLHDGVCMYIEALDKYACNCVVGYIGERCQYRDLKWWELR; Epidermal growth factor; UniProt P01133 971-1023, looked up) |  | weakly mitogenic |  |  |  |  |  |  |  |  |  | 
5 | C[C@]12CCC(=O)C=C1CC[C@@H]1[C@@H]2[C@@H](O)C[C@@]2(C)[C@H]1CC[C@]2(O)C(=O)CO [Hydrocortisone, hydrocortisone, reference compound] |  |  |  |  |  |  |  |  |  |  |  | effect on bFGF-induced myometrial MEC proliferation ([1]; in the presence or absence of IBMX or dibutyryl cAMP (results not shown)): no significant effect
6 | vascular endothelial growth factor [VEGF] |  |  | even greater levels of MEC proliferation | dose dependent manner | ~1.5 ng/mL | 0.70 | ~1.6 ng/mL | 0.51 ±0.09 | migrated into the denuded area to a comparable extent | +++ | +++ | 

— US20020039787A1, “Method for culturing cells” (priority 2000, published 2002)
